The test system of series [1] is Trypanosoma brucei rhodesiense (STIB 900 strain). Description: Alamar Blue assay against Trypanosoma brucei rhodesiense grown in axenic medium. The class given is cell-based. As to conditions: In vitro inhibition, read-out: T.b.rhod. Put shortly: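 Alamar Blue-based IC50 determination, in triplicate, on axenically grown STIB 900 trypanosomes. Melarsoprol included as reference.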

Series [2] deals with Trypanosoma cruzi trypomastigote forms (Tulahuen strain). Description: Intracellular Trypanosoma cruzi assay in L6-cells, beta-galactosidase/CPRG readout. The following applies: In vitro inhibition, read-out: T.cruzi. The class given is cell-based. Put shortly:
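Readout was β-galactosidase cleavage of CPRG, read photometrically at 540 nm after 2–6 h colour development, giving IC50 values. Parasites: LacZ-expressing Tulahuen C2C4 strain grown in rat L6 myoblasts; run in triplicate.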

The subject of series [3] is Axenically grown Leishmania donovani amastigotes (strain MHOM/ET/67/L82). Description: Axenic Leishmania donovani amastigote resazurin assay. As to conditions: In vitro inhibition, read-out: L.don. ax. The class given is cell-based. Put shortly: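 IC50 values derive from resazurin fluorescence (ex 536 nm, em 588 nm), expressed relative to the negative control, after 2-4 hours of plate development. Axenic amastigotes of strain MHOM/ET/67/L82 were used; each test run in triplicate.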

For series [4], the system named is intracellular Leishmania donovani (L.don. InMac). Description: Intracellular Leishmania donovani assay (L.don. InMac). It is filed as cell-based. The following applies: In vitro inhibition. An excerpt: (§1) Tests were done in triplicate.
For series [5], the system named is Plasmodium falciparum. Description: 3H-hypoxanthine incorporation assay against Plasmodium falciparum. As to conditions: In vitro inhibition, read-out: P.falc NF5. The class given is cell-based. Here is the method:
as §1
IC50 values were calculated by linear interpolation.

A short description of series [6]: Cytotoxicity assay on L6-cells (Alamar Blue). The following applies: rat, Cytotox L6, Cytotoxicity against rat myoblast cells (L6).

Non-standard residues stand in square brackets, D forms with d. Residues, ends and D or L forms follow the SMILES beside them. *: point of attachment. Hexenoyl(2E,4S-Me) = CC[C@H](C)/C=C/C(=O)*; Leu(3R-OH) = CC(C)[C@@H](O)[C@H](N)C(=O)O; NH((S)CH(Me)CH2NMe2) = C[C@@H](CN(C)C)N*; NH(2-morpholinoethyl) = C(CN1CCOCC1)N*; Cyclopentanecarbonyl = O=C(C1CCCC1)*; Gly(octyl) = CCCCCCCC[C@H](N)C(=O)O; Hexanoyl = CCCCCC(=O)*; Aib = CC(C)(N)C(=O)O; βAla = NCCC(=O)O

As to `CCCCCCCC[C@H](NC(=O)[C@@H]1CCCN1C(=O)/C=C/[C@@H](C)CC)C(=O)N[C@@H](CC(C)C)C(=O)NC(C)(C)C(=O)N[C@@H](CC(C)C)C(=O)N[C@@H](CC(C)C)C(=O)NC(C)(C)C(=O)NC(C)(C)C(=O)NCCC(=O)N[C@@H](C)CN(C)C` [Compound 5562, (2S)-N-[(1S)-1-[(1-{[(1S)-1-{[(1S)-1-{[1-({1-[(2-{[(2S)-1-(dimethylamino)propan-2-yl]carbamoyl}ethyl)carbamoyl]-1-methylethyl}carbamoyl)-1-methylethyl]carbamoyl}-3-methylbutyl]carbamoyl}-3-methylbutyl]carbamoyl}-1-methylethyl)carbamoyl]-3-methylbutyl]-2-{[(2S)-1-[(2E,4S)-4-methylhex-2-enoyl]pyrrolidin-2-yl]formamido}decanamide] ({Hexenoyl(2E,4S-Me)}-P[Gly(octyl)]L[Aib]LL[Aib][Aib][βAla]-{NH((S)CH(Me)CH2NMe2)}), the IC50 in series [1] is 0.5 nM; in series [2], 40.6 nM; in series [3], 1.3 nM; in series [4], 22.3 nM; in series [5], 0.3 nM. Also, the IC50 at 70 h in series [6] came to 459 nM.

Take `CCCCCCCC[C@H](NC(=O)[C@@H]1CCCN1C(=O)/C=C/[C@@H](C)CC)C(=O)N[C@H](C(=O)NC(C)(C)C(=O)N[C@@H](CC(C)C)C(=O)N[C@@H](CC(C)C)C(=O)NC(C)(C)C(=O)NC(C)(C)C(=O)NCCC(=O)NCCN1CCOCC1)[C@H](O)C(C)C` [Compound 5569, (2S)-N-[(1S,2R)-2-hydroxy-3-methyl-1-[(1-methyl-1-{[(1S)-3-methyl-1-{[(1S)-3-methyl-1-{[1-methyl-1-({1-methyl-1-[(2-{[2-(morpholin-4-yl)ethyl]carbamoyl}ethyl)carbamoyl]ethyl}carbamoyl)ethyl]carbamoyl}butyl]carbamoyl}butyl]carbamoyl}ethyl)carbamoyl]butyl]-2-{[(2S)-1-[(2E,4S)-4-methylhex-2-enoyl]pyrrolidin-2-yl]formamido}decanamide] ({Hexenoyl(2E,4S-Me)}-P[Gly(octyl)][Leu(3R-OH)][Aib]LL[Aib][Aib][βAla]-{NH(2-morpholinoethyl)}): the IC50 was determined as 1.7 nM in series [1]; 143 nM in series [2]; 3.8 nM in series [3]; 107 nM in series [4]; 17.9 nM in series [5]. The compound further had an IC50 at 70 h in series [6] of 2420 nM.

In the case of `CCCCCCCC[C@H](NC(=O)/C=C/[C@@H](C)CC)C(=O)N[C@H](C(=O)NC(C)(C)C(=O)N[C@@H](CC(C)C)C(=O)N[C@@H](CC(C)C)C(=O)NC(C)(C)C(=O)NC(C)(C)C(=O)NCCC(=O)N[C@@H](C)CN(C)C)[C@H](O)C(C)C` [Compound 5586, (2S)-N-[(1S,2R)-1-[(1-{[(1S)-1-{[(1S)-1-{[1-({1-[(2-{[(2S)-1-(dimethylamino)propan-2-yl]carbamoyl}ethyl)carbamoyl]-1-methylethyl}carbamoyl)-1-methylethyl]carbamoyl}-3-methylbutyl]carbamoyl}-3-methylbutyl]carbamoyl}-1-methylethyl)carbamoyl]-2-hydroxy-3-methylbutyl]-2-[(2E,4S)-4-methylhex-2-enamido]decanamide] ({Hexenoyl(2E,4S-Me)}-[Gly(octyl)][Leu(3R-OH)][Aib]LL[Aib][Aib][βAla]-{NH((S)CH(Me)CH2NMe2)}), the IC50 in series [1] came to 6.6 nM; in series [2], 108 nM; in series [3], 4.7 nM; in series [4], 104 nM; in series [5] it was 18.8 nM. The same compound yielded an IC50 at 70 h in series [6] of 1150 nM.

On to `CCCCCCCC[C@H](NC(=O)[C@@H]1CCCN1C(C)=O)C(=O)N[C@H](C(=O)NC(C)(C)C(=O)N[C@@H](CC(C)C)C(=O)N[C@@H](CC(C)C)C(=O)NC(C)(C)C(=O)NC(C)(C)C(=O)NCCC(=O)N[C@@H](C)CN(C)C)[C@H](O)C(C)C` [Compound 5588, (2S)-2-{[(2S)-1-acetylpyrrolidin-2-yl]formamido}-N-[(1S,2R)-1-[(1-{[(1S)-1-{[(1S)-1-{[1-({1-[(2-{[(2S)-1-(dimethylamino)propan-2-yl]carbamoyl}ethyl)carbamoyl]-1-methylethyl}carbamoyl)-1-methylethyl]carbamoyl}-3-methylbutyl]carbamoyl}-3-methylbutyl]carbamoyl}-1-methylethyl)carbamoyl]-2-hydroxy-3-methylbutyl]decanamide] (Ac-P[Gly(octyl)][Leu(3R-OH)][Aib]LL[Aib][Aib][βAla]-{NH((S)CH(Me)CH2NMe2)}), for which the IC50 in series [1] was 6 nM; in series [2], 2330 nM; in series [3] it was 4.6 nM; in series [4], 463 nM; in series [5] it was 9.6 nM. Besides, the IC50 at 70 h in series [6] is 3540 nM.

Consider `CCCCCCCC[C@H](NC(=O)[C@@H]1CCCN1C(=O)CCCCC)C(=O)N[C@H](C(=O)NC(C)(C)C(=O)N[C@@H](CC(C)C)C(=O)N[C@@H](CC(C)C)C(=O)NC(C)(C)C(=O)NC(C)(C)C(=O)NCCC(=O)N[C@@H](C)CN(C)C)[C@@H](C)O` [Compound 5604, (2S)-N-[(1S,2R)-1-[(1-{[(1S)-1-{[(1S)-1-{[1-({1-[(2-{[(2S)-1-(dimethylamino)propan-2-yl]carbamoyl}ethyl)carbamoyl]-1-methylethyl}carbamoyl)-1-methylethyl]carbamoyl}-3-methylbutyl]carbamoyl}-3-methylbutyl]carbamoyl}-1-methylethyl)carbamoyl]-2-hydroxypropyl]-2-{[(2S)-1-hexanoylpyrrolidin-2-yl]formamido}decanamide] (Hexanoyl-P[Gly(octyl)]T[Aib]LL[Aib][Aib][βAla]-{NH((S)CH(Me)CH2NMe2)}), for which the IC50 in series [1] is 0.8 nM; in series [2] it was 426 nM; in series [3] it was 4 nM; in series [4], 228 nM; in series [5], 3.6 nM. In series [6], the IC50 at 70 h was found to be 1290 nM.

Consider `CCCCCCCC[C@H](NC(=O)[C@@H]1CCCN1C(=O)CCCCC)C(=O)N[C@@H](CC(C)C)C(=O)NC(C)(C)C(=O)N[C@@H](CC(C)C)C(=O)N[C@@H](CC(C)C)C(=O)NC(C)(C)C(=O)NC(C)(C)C(=O)NCCC(=O)N[C@@H](C)CN(C)C` [Compound 5632, (2S)-N-[(1S)-1-[(1-{[(1S)-1-{[(1S)-1-{[1-({1-[(2-{[(2S)-1-(dimethylamino)propan-2-yl]carbamoyl}ethyl)carbamoyl]-1-methylethyl}carbamoyl)-1-methylethyl]carbamoyl}-3-methylbutyl]carbamoyl}-3-methylbutyl]carbamoyl}-1-methylethyl)carbamoyl]-3-methylbutyl]-2-{[(2S)-1-hexanoylpyrrolidin-2-yl]formamido}decanamide] (Hexanoyl-P[Gly(octyl)]L[Aib]LL[Aib][Aib][βAla]-{NH((S)CH(Me)CH2NMe2)}), for which the IC50 stood at 0.4 nM in series [1]; 10.2 nM in series [2]; 1.3 nM in series [3]; 52.1 nM in series [4]; 0.1 nM in series [5]. The compound further displayed an IC50 at 70 h in series [6] of 162 nM.

As to `CCCCCCCC[C@H](NC(=O)[C@@H]1CCCN1C(C)=O)C(=O)N[C@@H](CC(C)C)C(=O)NC(C)(C)C(=O)N[C@@H](CC(C)C)C(=O)N[C@@H](CC(C)C)C(=O)NC(C)(C)C(=O)NC(C)(C)C(=O)NCCC(=O)N[C@@H](C)CN(C)C` [Compound 5638, (2S)-2-{[(2S)-1-acetylpyrrolidin-2-yl]formamido}-N-[(1S)-1-[(1-{[(1S)-1-{[(1S)-1-{[1-({1-[(2-{[(2S)-1-(dimethylamino)propan-2-yl]carbamoyl}ethyl)carbamoyl]-1-methylethyl}carbamoyl)-1-methylethyl]carbamoyl}-3-methylbutyl]carbamoyl}-3-methylbutyl]carbamoyl}-1-methylethyl)carbamoyl]-3-methylbutyl]decanamide] (Ac-P[Gly(octyl)]L[Aib]LL[Aib][Aib][βAla]-{NH((S)CH(Me)CH2NMe2)}), the IC50 in series [1] was determined as 0.4 nM; in series [2], 98.5 nM; in series [3] it was 7 nM; in series [4] it was 224 nM; in series [5], 0.6 nM. In series [6], this compound gave an IC50 at 70 h of 634 nM.

Take `CCCCCCCC[C@H](NC(=O)C1CCCC1)C(=O)N[C@H](C(=O)NC(C)(C)C(=O)N[C@@H](CC(C)C)C(=O)N[C@@H](CC(C)C)C(=O)NC(C)(C)C(=O)NC(C)(C)C(=O)NCCC(=O)N[C@@H](C)CN(C)C)[C@@H](C)O` [Compound 5641, (2S)-2-(cyclopentylformamido)-N-[(1S,2R)-1-[(1-{[(1S)-1-{[(1S)-1-{[1-({1-[(2-{[(2S)-1-(dimethylamino)propan-2-yl]carbamoyl}ethyl)carbamoyl]-1-methylethyl}carbamoyl)-1-methylethyl]carbamoyl}-3-methylbutyl]carbamoyl}-3-methylbutyl]carbamoyl}-1-methylethyl)carbamoyl]-2-hydroxypropyl]decanamide] (Cyclopentanecarbonyl-[Gly(octyl)]T[Aib]LL[Aib][Aib][βAla]-{NH((S)CH(Me)CH2NMe2)}): the IC50 in series [1] was 3.9 nM; in series [2], 1400 nM; in series [3], 8.2 nM; in series [4], 862 nM; in series [5], 72.9 nM. The IC50 at 70 h in series [6] was determined as 1670 nM.

Values taken from EP3345917A1, “ANTIPROTOZOAL COMPOUNDS” (Bacoba AG, priority 2017, dated 2018).
